Assay [1] has as its target T1, proMMP9(67-444;ΔFnII) (SEQ ID NO:5) (Homo sapiens, UniProt P14780, DEL216-390).
T1 construct: start methionine (N); made in house; host or cells: E. coli BL21(DE3) RIL
T1 sequence (P14780 with tags, fused parts or gaps DEL216-390): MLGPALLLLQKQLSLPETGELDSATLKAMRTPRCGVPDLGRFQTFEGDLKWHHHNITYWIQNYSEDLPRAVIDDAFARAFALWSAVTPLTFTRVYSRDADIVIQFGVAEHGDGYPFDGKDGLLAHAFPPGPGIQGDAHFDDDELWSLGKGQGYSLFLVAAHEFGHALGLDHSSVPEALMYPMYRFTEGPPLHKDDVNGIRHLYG
As to the kind of experiment: ThermoFluor binding assay with proMMP9(67-444;ΔFnII). As for the experimental part: (§1) The ThermoFluor® (TF) assay is a 384-well plate-based binding assay that measures thermal stability of proteins (Biomol Screen 2001, 6, 429-40; Biochemistry 2005, 44, 5258-66). The experiments were carried out using instruments available from Johnson & Johnson Pharmaceutical Research & Development, LLC. TF dye used in all experiments was […] (1,8-ANS) (Invitrogen: A-47).
(§2) Compounds were arranged in a pre-dispensed plate (Greiner Bio-one: 781280), wherein compounds were serially diluted in 100% DMSO across 11 columns within a series. Columns 12 and 24 were used as DMSO reference and contained no compound. For multiple compound concentration-response experiments, the compound aliquots (50 nL) were robotically predispensed directly into black 384-well polypropylene PCR microplates (Abgene: TF-0384/k) using a Cartesian Hummingbird liquid handler (DigiLab, Holliston, Mass.). Following compound dispense, protein and dye solutions were added to achieve the final assay volume of 3 μL. The assay solutions were overlayed with 1 μL of silicone oil (Fluka, type DC 200: 85411) to prevent evaporation.
(§3) Assay plates were robotically loaded onto a thermostatically controlled PCR-type thermal block and then heated from 40 to 90° C. at a ramp-rate of 1° C./min for all experiments. Fluorescence was measured by continuous illumination with UV light (Hamamatsu LC6) supplied via fiber optics and filtered through a band-pass filter (380-400 nm; >60D cutoff). Fluorescence emission of the entire 384-well plate was detected by measuring light intensity using a CCD camera (Sensys, Roper Scientific) filtered to detect 500±25 nm, resulting in simultaneous and independent readings of all 384 wells. A single image with 20-sec exposure time was collected at each temperature, and the sum of the pixel intensity in a given area of the assay plate was recorded vs temperature and fit to standard equations to yield the Tm (J Biomol Screen 2001, 6, 429-40).
(§4) Thermodynamic parameters necessary for fitting compound binding for each proMMP were estimated by differential scanning calorimetry (DSC) and from ThermoFluor® data. The heat capacity of unfolding for each protein was estimated from the molecular weight and from ThermoFluor® dosing data.
ThermoFluor® with proMMP9(67-444;ΔFnM (SEQ ID NO:5)
The protein sample preparations had to include a desalting buffer exchange step via a PD-10 gravity column (GE Healthcare). The desalting buffer exchange was performed prior to diluting the protein to the final assay concentration of 3.5 μM proMMP9(67-444;ΔFnII) (SEQ ID NO:5). The concentration of proMMP9(67-444;ΔFnII) (SEQ ID NO:5) was determined spectrophotometrically based on a calculated extinction coefficient of ε280=33900 M^−1 cm^−1, a calculated molecular weight of 22.6 kDa, and calculated pI of 5.20. ThermoFluor® reference conditions were defined as follows: 80 μg/mL (3.5 μM) proMMP9(67-444;ΔFnII) (SEQ ID NO:5), 50 μM 1,8-ANS, pH 7.0 Buffer (50 mM HEPES pH 7.0, 100 mM NaCl, 0.001% Tween-20, 2.5 mM MgCl2, 300 μM CaCl2). The thermodynamic parameters for proMMP9(67-444;ΔFnII) (SEQ ID NO:5) are as follows: Tm (° C.)=63 (+/−0.1), ΔUH(Tm)(cal mol^−1)=105000(+/−5000), ΔUS(Tm) (cal mol^−1 K^−1)=450, ΔUCp (cal mol^−1 K^−1)=2000.

Assay [2] concerns the target T2, proMMP9(20-445;ΔFnII) (SEQ ID NO:6) (Homo sapiens, UniProt P14780, DEL216-390).
T2 construct: start methionine (N); made in house; host or cells: E. coli BL21(DE3) RIL
T2 sequence (P14780 with tags, fused parts or gaps DEL216-390): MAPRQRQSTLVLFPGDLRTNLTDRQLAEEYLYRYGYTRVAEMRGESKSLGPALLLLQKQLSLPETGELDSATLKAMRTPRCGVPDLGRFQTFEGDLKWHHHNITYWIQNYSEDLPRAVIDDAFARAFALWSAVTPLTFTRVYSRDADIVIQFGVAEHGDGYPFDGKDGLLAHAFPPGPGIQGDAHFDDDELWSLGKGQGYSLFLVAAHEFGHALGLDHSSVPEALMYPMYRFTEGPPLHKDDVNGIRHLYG
As to the kind of experiment: ThermoFluor binding assay with proMMP9(20-445;ΔFnII). How it is done: as §1, §2, §3, §4
ThermoFluor® with proMMP9(20-445; ΔFnII (SEQ ID NO:6)
The protein sample preparations included a desalting buffer exchange step via a PD-10 gravity column (GE Healthcare). The desalting buffer exchange was performed prior to diluting the protein to the final assay concentration of 2.8 μM proMMP9(20-445;ΔFnII) (SEQ ID NO:6). The concentration of proMMP9(20-445;ΔFnII) (SEQ ID NO:6) was determined spectrophotometrically based on a calculated extinction coefficient of ε280=39880 M^−1 cm^−1, a calculated molecular weight of 28.2 kDa, and calculated pI of 5.5. ThermoFluor® reference conditions were define as follows: 80 μg/mL (2.8 μM) proMMP9(20-445;ΔFnII) (SEQ ID NO:6), 50 μM 1,8-ANS, pH 7.0 Buffer (50 mM HEPES pH 7.0, 100 mM NaCl, 0.001% Tween-20, 2.5 mM MgCl2, 300 μM CaCl2). The thermodynamic parameters for proMMP9(20-445;ΔFnII) (SEQ ID NO:6) are as follows: Tm (° C.)=72 (+/−0.1), ΔUH(Tm) (cal mol^−1)=160000(+/−5000), ΔUSTm (cal mol^−1 K^−1)=434, ΔUCp (cal mol^−1 K^−1)=2400.

For assay [3], the target named is T3, full-length proMMP9(1-707) activation by catalytic MMP3 (Homo sapiens, UniProt P14780, R574P).
T3 construct: made in house; host or cells: proMMP9: HEK293 (secreted); MMP3: E. coli
Description: proMMP9/MMP3 P126 Activation Assay. In kind it is biochemical. How it is done:
proMMP9/MMP3 P126 Activation Assay
The reaction volume was 50 μL. […] Reactivity of residual MMP3 towards P-126 substrate was minimal under these conditions.

Structures can show the parent of a compound that is named as a salt.

T3 sequence (P14780 20-707 R574P): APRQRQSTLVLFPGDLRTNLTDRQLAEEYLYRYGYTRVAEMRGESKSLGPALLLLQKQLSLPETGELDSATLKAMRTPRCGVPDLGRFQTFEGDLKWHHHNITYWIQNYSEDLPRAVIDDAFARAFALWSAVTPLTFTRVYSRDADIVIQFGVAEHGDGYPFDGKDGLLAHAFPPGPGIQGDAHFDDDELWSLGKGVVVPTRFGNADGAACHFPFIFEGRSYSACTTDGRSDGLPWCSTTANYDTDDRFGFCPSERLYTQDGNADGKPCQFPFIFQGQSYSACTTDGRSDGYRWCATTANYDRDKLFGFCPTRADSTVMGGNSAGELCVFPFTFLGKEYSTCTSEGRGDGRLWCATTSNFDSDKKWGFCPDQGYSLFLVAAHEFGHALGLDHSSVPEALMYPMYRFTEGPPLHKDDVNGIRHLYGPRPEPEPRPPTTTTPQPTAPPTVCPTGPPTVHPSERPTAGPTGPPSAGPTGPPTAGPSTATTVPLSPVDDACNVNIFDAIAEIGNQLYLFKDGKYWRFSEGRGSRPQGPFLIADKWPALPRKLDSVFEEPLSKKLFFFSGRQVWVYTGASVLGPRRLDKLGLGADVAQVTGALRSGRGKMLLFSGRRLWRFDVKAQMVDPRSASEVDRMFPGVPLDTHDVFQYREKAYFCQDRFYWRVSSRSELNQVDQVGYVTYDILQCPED

Consider `COc1ccncc1Nc1nc2c(ccc3ncn(CC(F)(F)F)c32)s1` [Example 153, N-(4-Methoxypyridin-3-yl)-8-(2,2,2-trifluoroethyl)-8H-imidazo[4′,5′:5,6]-benzo[1,2-d]thiazol-2-amine], for which the Kd in assay [1] stood at 600 nM; in assay [2], 1400 nM. Besides, the IC50 in assay [3] came out at 650 nM.
The like results for `COc1ccc(S(=O)(=O)N2CCCCC2)cc1Nc1nc2c(ccc3c2ncn3C)s1` [Example 80, [2-Methoxy-5-(piperidine-1-sulfonyl)-phenyl]-(6-methyl-6H-imidazo[4′,5′:3,4]-benzo[2,1-d]thiazol-2-yl)-amine.HCl] were, in that order, 960 nM, 2300 nM and 740 nM.
The matching figures for `CC(C)Oc1ccncc1Nc1nc2c(ccc3c2ncn3C)s1` [Example 157, N-(4-Isopropoxypyridin-3-yl)-6-methyl-6H-imidazo[4′,5′:5,6]benzo[1,2-d]thiazol-2-amine.HCl]: 18 nM, 350 nM and 42 nM.
The matching figures for `COc1c(Nc2nc3c(ccc4c3ncn4C)s2)cc(C(N)=O)cc1C(F)(F)F` [Example 53, 4-Methoxy-3-(6-methyl-6H-imidazo[4′,5′:3,4]benzo[2,1-d]thiazol-2-ylamino)-5-trifluoromethyl-benzamide.HCl]: 6200 nM, 4000 nM and 4200 nM.
On to `CCOc1ccccc1Nc1nc2c(ccc3sc(N)nc32)s1` [Example 3, N^7-(2-Ethoxy-phenyl)-benzo[2,1-d;3,4-d′]bisthiazole-2,7-diamine.TFA], for which the Kd in assay [1] came to 1600 nM; in assay [2], 3200 nM. In assay [3], the IC50 turned out to be 1400 nM.
Consider `Cn1cnc2ccc3sc(Nc4cc(S(N)(=O)=O)ccc4OC(F)(F)F)nc3c21` [Example 128, 3-(8-Methyl-8H-imidazo[4′,5′:3,4]benzo[2,1-d]thiazol-2-ylamino)-4-trifluoromethoxy-benzenesulfonamide.TFA], for which the Kd in assay [1] came out at 1500 nM; in assay [2], 4900 nM. Besides, it took 680 nM to reach half-maximal inhibition in assay [3] (IC50).
Take `Cn1cnc2c3nc(Nc4cc(C(N)=O)ccc4OC(F)(F)F)sc3ccc21` [Example 65, 3-(6-Methyl-6H-imidazo[4′,5′:3,4]-benzo[2,1-d]thiazol-2-ylamino)-4-trifluoromethoxy-benzamide.HCl]: the figures for the Kd in assay [1] and in assay [2] were 250 nM and 77 nM, respectively. In assay [3], the IC50 was found to be 150 nM.
`COc1ccc(C#N)cc1Nc1nc2c(ccc3cnccc32)s1` [Example 151, 4-Methoxy-3-(thiazolo[4,5-f]isoquinolin-2-ylamino)-benzonitrile.TFA]: the Kd in assay [2] was over 95000 nM. The molecule further yielded an IC50 in assay [3] of over 20000 nM.
Take `Cc1nc2ccc3sc(Nc4ccccc4OC(C)C)nc3c2s1` [Example 17, (2-Isopropoxy-phenyl)-(2-methyl-benzo[1,2-d;3,4-d′]-bisthiazol-7-yl)-amine.HCl]: the Kd in assay [1] and in assay [2] was over 95000 nM throughout. The molecule also yielded an IC50 in assay [3] of 5800 nM.
As to `COc1ccccc1Nc1nc2c(ccc3cnccc32)s1` [Example 100, (2-Methoxy-phenyl)-thiazolo[4,5-f]isoquinolin-2-yl-amine.TFA], in assay [2], binding was characterised by a dissociation constant (Kd) of 76000 nM. This molecule gave an IC50 in assay [3] of 1700 nM.
On to `CC(C)Cc1ccc(C(N)=O)cc1Nc1nc2c(ccc3c2ncn3C)s1` [Example 88, 4-Isobutyl-3-(6-methyl-6H-imidazo[4′,5′:3,4]-benzo[2,1-d]thiazol-2-ylamino)-benzamide], for which half-maximal inhibition in assay [3] (IC50) was put at 3900 nM.
The same measure, in the same setting: to `CCn1c(C)nc2ccc3sc(Nc4cnccc4OC)nc3c21` [Example 152, 8-Ethyl-N-(4-methoxypyridin-3-yl)-7-methyl-8H-imidazo[4′,5′:5,6]benzo[1,2-d]thiazol-2-amine] belongs 550 nM.
On to `COc1ccc(S(C)(=O)=O)cc1Nc1nc2c(ccc3c2ccn3C)s1` [Example 163, N-(2-methoxy-5-(methylsulfonyl)phenyl)-6-methyl-6H-thiazolo[4,5-e]indol-2-amine.HCl], for which, in assay [2], the Kd was 420 nM. In addition, half-maximal inhibition in assay [3] (IC50) required 110 nM.
The like results for `CC(C)Oc1ccc(S(N)(=O)=O)cc1Nc1nc2c(ccc3c2ccn3C)s1` [Example 161, 4-isopropoxy-3-((6-methyl-6H-thiazolo[4,5-e]indol-2-yl)amino)benzenesulfonamide.HCl] were, in that order, 480 nM and 340 nM.
The matching figures for `Cn1ccc2c3nc(Nc4cc(S(N)(=O)=O)ccc4OC(F)(F)F)sc3ccc21` [Example 162, 3-((6-methyl-6H-thiazolo[4,5-e]indol-2-yl)amino)-4-(trifluoromethoxy)benzenesulfonamide.HCl]: 430 nM and 640 nM.
For `COc1ccc(C#N)cc1Nc1nc2c(ccc3ocnc32)s1` [Example 84, 4-Methoxy-3-(thiazolo[4′,5′:3,4]-benzo[2,1-d]oxazol-7-ylamino)-benzonitrile], the IC50 in assay [3] came to 750 nM.
Take `COc1ccc(S(N)(=O)=O)cc1Nc1nc2c(ccc3cnccc32)s1` [Example 104, 4-Methoxy-3-(thiazolo[4,5-f]isoquinolin-2-ylamino)-benzenesulfonamide.TFA]: the figures for the Kd in assay [1] and in assay [2] were 6100 nM and 7700 nM, respectively.
In assay [3], `COc1cc([N+](=O)[O-])ccc1Nc1nc2c(ccc3c2ncn3C)s1` [Example 83, (2-Methoxy-4-nitro-phenyl)-(6-methyl-6H-imidazo[4′,5′:3,4]benzo[2,1-d]thiazol-2-yl)-amine.HCl] came in with an IC50 of about 100 nM.

The values are drawn from US20120129811A1, “TRICYCLIC INHIBITORS OF PRO-MATRIX METALLOPROTEINASE ACTIVATION” (priority 2010, published 2012).
